Measurements reported in paper PMC6201305 (Journal of medicinal chemistry, 2010).
Several values for one entry are separate records, joined by “and”; a condition that tells them apart may be missing. Identical values can stand only once.

Key:
wild type GPR17 [1] = target: T1, wild type GPR17 (Homo sapiens, UniProt Q13304); experiment: FAC-MS screening on GPR17-IAM-II column; format: binding; details: Library A; for breakthrough time GPR17-IAM-II (Table 5): 1 µM each; for breakthrough time GPR17-IAM-II (Table 5) / t (min), breakthrough time: column GPR17-IAM-II (19.5 million cells); for t/tC × 100: column GPR17-IAM-II; for t (min), breakthrough time: single ranking experiment
[2] = target: mutated GPR17 receptor (Arg255Ile) (Homo sapiens, UniProt Q13304, R283I); experiment: FAC-MS screening on mutated GPR17-IAM column; format: binding; details: Library A, mutated GPR17-IAM column (19.5 million cells); for breakthrough time Mutated GPR17-IAM (Table 5): 1 µM each
wild type GPR17 [3] = target: T1, wild type GPR17; experiment: FAC-MS screening on GPR17-IAM-I column; format: binding; details: for t/tc × 100, percentage of breakthrough time with respect to cangrelor / binding class from FAC-MS breakthrough / t (min), breakthrough time of the ligand with the immobilized GPR17: column GPR17-IAM-I; for binding class from FAC-MS breakthrough: relative to cangrelor, MRS 2179 and UDP; for t (min), breakthrough time of the ligand with the immobilized GPR17: each 1 µM, single ranking experiment
wild type GPR17 [4] = target: T1, wild type GPR17; experiment: [35S]GTPγS binding functional assay, 1321N1 cells expressing wild-type GPR17; format: biochemical
[5] = target: R255I mutated GPR17 receptor (Homo sapiens, UniProt Q13304, R283I); experiment: [35S]GTPγS binding functional assay, 1321N1 cells expressing mutated GPR17; format: biochemical; details: [35S]GTPγS EC50/IC50, P < 0.05 for antagonists
wild type GPR17 [6] = target: T1, wild type GPR17; details: cited from earlier work
P2Y receptors = details: as listed in Table 1; cited from earlier work

T1 sequence (Q13304 29-367): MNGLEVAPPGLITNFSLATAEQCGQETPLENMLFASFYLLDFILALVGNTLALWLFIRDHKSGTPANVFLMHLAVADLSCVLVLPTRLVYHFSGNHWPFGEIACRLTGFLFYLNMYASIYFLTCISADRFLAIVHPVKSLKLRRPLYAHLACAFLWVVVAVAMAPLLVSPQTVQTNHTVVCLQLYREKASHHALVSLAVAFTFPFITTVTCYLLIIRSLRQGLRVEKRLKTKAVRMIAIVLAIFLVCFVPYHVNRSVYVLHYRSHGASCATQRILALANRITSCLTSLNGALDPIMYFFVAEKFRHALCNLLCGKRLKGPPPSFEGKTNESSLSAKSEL
mutated GPR17 receptor (Arg255Ile), sequence (Q13304 29-367 R283I): as the sequence (Q13304 29-367) above, with R255I counted along it
R255I mutated GPR17 receptor, sequence (Q13304 29-367 R283I): as the sequence (Q13304 29-367) above, with R255I counted along it

Row | Compound | breakthrough time GPR17-IAM-II (Table 5) (wild type GPR17 [1]) | t/tC × 100 (wild type GPR17 [1]) [%] | t (min), breakthrough time (wild type GPR17 [1]) | breakthrough time Mutated GPR17-IAM (Table 5) [2] | t/tc × 100, percentage of breakthrough time with respect to cangrelor (wild type GPR17 [3]; Library A mixture) | pharmacological profile (agonist/antagonist) in [35S]GTPγS binding (wild type GPR17 [4]; wild-type GPR17) | binding class from FAC-MS breakthrough (wild type GPR17 [3]) | t (min), breakthrough time [2] [min] | change in affinity toward mutated vs wild type receptor [5] | t/tc × 100, percentage of breakthrough time with respect to cangrelor (wild type GPR17 [3]; Library B mixture) | t (min), breakthrough time of the ligand with the immobilized GPR17 (wild type GPR17 [3]; Library B mixture) [min] | profile at GPR17 (wild type GPR17 [6]) | pharmacology (P2Y receptors) | Kd value hypothesized from the chromatographic data (wild type GPR17 [3]; elutes after cangrelor) | increase in [35S]GTPγS binding by compound alone (wild type GPR17 [4]; wild-type GPR17) | t/tc × 100, percentage of breakthrough time with respect to cangrelor (wild type GPR17 [3]; Library A mixture, listed as MRS 2179) [%] | increase of activity on replacement of 3-nitrogen by CH (8 versus 7) (wild type GPR17 [4]; wild-type GPR17, EC50 comparison) [fold]
1 | CNc1ncnc2c1ncn2[C@@H]1O[C@H](COP(=O)(O)OP(=O)(O)OP(=O)(O)O)[C@@H](O)[C@H]1O.N.N.N.N [Compound 5] | 3.69 | 34.81 | 3.69 min | 4.08 | – | – | – | – | – | – | – | – | – | – | – | – | –
2 | CNc1nc(Cl)nc2c1ncn2[C@@H]1O[C@H](COP(=O)(O)OP(=O)(O)OP(=O)(O)O)[C@@H](O)[C@H]1O.N.N.N.N [Compound 7, 2.-choro-N^6 - methyladenosine Triphospate] | 4.50 | 42.45 | 4.50 min and 4.5 min | 5.27 | 37.56% | agonist profile | – | – | – | – | – | – | – | – | – | – | –
3 | N.N.N.O=c1[nH]c(=O)n([C@@H]2O[C@H](COP(=O)(O)OP(=O)(O)O)[C@@H](O)[C@H]2O)cc1I [Compound 13] | 2.79 | 26.32 | 2.79 min | 2.51 | 16.54% | agonist profile | weak binders | 2.51 | a trend toward a reduced affinity | – | – | – | – | – | – | – | –
4 | O=c1ccn([C@@H]2O[C@H](COP(=O)([O-])OP(=O)([O-])[O-])[C@@H](O)[C@H]2O)c(=O)[nH]1.[Na+].[Na+].[Na+] [UDP, uridine diphosphate] | 2.69 | 25.38 | 2.69 min | 2.15 | 13% and 13.03% | – | – | 2.15 | a trend toward a reduced affinity | 12% and 12.30% | 1.50 | agonist | P2Y agonist | – | – | – | –
5 | CCCCC#Cc1cn([C@@H]2O[C@H](COP(=O)(O)OP(=O)(O)O)[C@@H](O)[C@H]2O)c(=O)[nH]c1=O [Compound 14, 5-Hexynyluridine Diphosphate] | 2.97 | 28.02 | 2.97 min | 2.90 | 19.67% | – | weak binders | – | – | – | – | – | – | – | – | – | –
6 | CSCCNc1nc(SCCC(F)(F)F)nc2c1ncn2[C@@H]1O[C@H](COP(=O)([O-])OP(=O)([O-])C(Cl)(Cl)P(=O)([O-])[O-])[C@@H](O)[C@H]1O.[Na+].[Na+].[Na+].[Na+] [Cangrelor, cangrelor, reference compound] | 10.60 | 100.00 | 10.60 min and 10.6 min | 13.16 | 100.00% | – | – | 13.16 | significant increase in affinity | 100.00% | 12.20 | antagonists | – | – | – | – | –
7 | N.N.N.N.O=P(O)(O)OP(=O)(O)OP(=O)(O)OC[C@H]1O[C@@H](n2cnc3c(NC4CCCC4)ncnc32)[C@H](O)[C@@H]1O [Compound 6] | 5.67 | 53.49 | 5.67 min | 7.08 | 49.90% | agonist profile | – | – | – | – | – | – | – | – | – | – | –
8 | N.N.N.N.Nc1nc(C#Cc2ccccc2)nc2c1ncn2[C@@H]1O[C@H](COP(=O)(O)OP(=O)(O)OP(=O)(O)O)[C@@H](O)[C@H]1O [Compound 4] | 13.07 | 123.30 | 13.07 min | 16.07 | 120.37% | agonist profile | high binding candidates | 16.07 | a trend toward an increased affinity | – | – | – | P2Y1,12antogonist | subnanomolar | – | – | –
9 | N.N.Nc1nc(Cl)nc2c1ncn2[C@H]1C[C@H](OP(=O)(O)O)[C@@H](COP(=O)(O)O)O1 [Compound 12] | 3.55 | 33.49 | 3.55 min | 3.54 | 25.99% | antagonist profile | – | – | – | – | – | – | – | – | did not induce any significant increase | – | –
10 | CNc1ncnc2c1ncn2[C@H]1C[C@H](OP(=O)(O)O)[C@@H](COP(=O)(O)O)O1.N.N [MRS2179, MRS 2179] | 3.62 | 34.15 | 3.62 min | 3.47 | 28.92% | – | – | 3.47 | significant increase in affinity | 28% and 27.87% | 3.40 | antagonists | P2Y1 competitive Antagonist | – | – | 29 | –
11 | CNc1nc(Cl)cc2c1ncn2[C@@H]1O[C@H](COP(=O)(O)OP(=O)(O)OP(=O)(O)O)[C@@H](O)[C@H]1O.N.N.N.N [Compound 8, 2.-choro-3-deaza-N^6-- methyladenosine Triphospate] | 4.77 | 45.00 | 4.77 min | 5.79 | 45.05% | agonist profile | – | – | – | – | – | – | – | – | – | – | 7
